Assay results taken from patent US20130230459A1, “RADIOLABELLED mGluR2 PET LIGANDS” (Janssen Pharmaceuticals, Inc., priority 2010, published 2013).

Experiments:
hmGluR3 = molecular target: T1, hmGluR3 (Homo sapiens, UniProt Q14832); assay: Selectivity functional receptor assay, mGluR3; assay type: cell-based; conditions: hmGluR2 versus mGluR3
T1 construct: expressed in transfected cells
Experimental: (§1) Selectivity of the compounds for hmGluR2 versus hmGluR1, hmGluR3, hmGluR4, hmGluR5, rmGluR6, hmGluR7 and hmGluR8 was determined using functional receptor assays (either measuring changes in intracellular Ca2+ mobilization or G protein activation via [^35S]GTPγS) with cells overexpressing the receptor of interest.

human mGluR2 receptor = molecular target: T2, human mGluR2 receptor (Homo sapiens, UniProt Q14416); assay: [35S]GTPγS binding assay, mGluR2 positive allosteric modulation (PAM); assay type: biochemical; conditions: in presence of ~EC20 glutamate, membranes of CHO cells with human mGluR2; for EC50: read-out: GTPγS-hmGluR2 PAM pEC50 (converted)
T2 construct: expressed in transfected cells; host or cells: CHO cells (membranes)
T2 sequence (Q14416 19-872): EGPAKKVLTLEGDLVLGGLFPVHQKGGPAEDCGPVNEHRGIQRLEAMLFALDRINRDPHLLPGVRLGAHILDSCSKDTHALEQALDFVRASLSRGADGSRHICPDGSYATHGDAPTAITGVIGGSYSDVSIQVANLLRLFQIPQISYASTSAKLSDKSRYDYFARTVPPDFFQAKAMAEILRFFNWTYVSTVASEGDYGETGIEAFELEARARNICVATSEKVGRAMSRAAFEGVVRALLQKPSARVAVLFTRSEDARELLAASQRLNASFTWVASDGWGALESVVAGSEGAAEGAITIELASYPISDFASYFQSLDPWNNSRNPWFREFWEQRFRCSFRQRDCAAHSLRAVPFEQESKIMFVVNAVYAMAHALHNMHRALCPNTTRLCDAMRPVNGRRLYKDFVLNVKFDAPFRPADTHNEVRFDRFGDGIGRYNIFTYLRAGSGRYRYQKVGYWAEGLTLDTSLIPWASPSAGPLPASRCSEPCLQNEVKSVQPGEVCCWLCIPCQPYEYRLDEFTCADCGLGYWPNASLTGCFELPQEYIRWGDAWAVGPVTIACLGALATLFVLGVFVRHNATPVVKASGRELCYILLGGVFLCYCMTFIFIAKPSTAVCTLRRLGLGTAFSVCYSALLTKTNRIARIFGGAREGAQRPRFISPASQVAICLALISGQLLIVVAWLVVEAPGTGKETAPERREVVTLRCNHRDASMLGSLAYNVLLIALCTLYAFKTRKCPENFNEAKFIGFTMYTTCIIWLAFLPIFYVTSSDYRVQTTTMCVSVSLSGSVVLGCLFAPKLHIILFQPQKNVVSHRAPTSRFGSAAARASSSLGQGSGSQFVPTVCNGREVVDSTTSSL
Experimental: The [^35S]GTPγS binding assay is a functional membrane-based assay used to study G-protein coupled receptor (GPCR) function whereby incorporation of a non-hydrolysable form of GTP, [^35S]GTPγS (guanosine 5′-triphosphate, labelled with […] ^35S), is measured.
CHO-cells were cultured to pre-confluence and stimulated with 5 mM butyrate for 24 h. Cells were then collected by scraping in PBS and cell suspension was centrifuged (10 min at 4000 RPM in benchtop centrifuge). Supernatant was discarded and pellet gently resuspended in 50 mM Tris-HCl, pH 7.4 by mixing with a vortex and pipetting up and down. The suspension was centrifuged at 16,000 RPM (Sorvall RC-5C plus rotor SS-34) for 10 minutes and the supernatant discarded. The pellet was homogenized in 5 mM Tris-HCl, pH 7.4 using an ultra-turrax homogenizer and centrifuged again (18,000 RPM, 20 min, 4° C.). The final pellet was resuspended in 50 mM Tris-HCl, pH 7.4 and stored at −80° C. in appropriate aliquots before use. Protein concentration was determined by the Bradford method (Bio-Rad, USA) with bovine serum albumin as standard.
Measurement of mGluR2 positive allosteric modulatory activity of test compounds was performed as follows. Test compounds and glutamate were diluted in assay buffer containing 10 mM HEPES acid, 10 mM HEPES salt, pH 7.4, 100 mM NaCl, 3 mM MgCl2 and 10 μM GDP. Human mGlu2 receptor-containing membranes were thawed on ice and diluted in assay buffer supplemented with 14 μg/ml saponin. Membranes were pre-incubated with compound alone or together with a predefined (˜EC20) concentration of glutamate (PAM assay) for 30 min at 30° C. After addition of [^35S]GTPγS (f.c. 0.1 nM), assay mixtures were shaken briefly and further incubated to allow [^35S]GTPγS incorporation on activation (30 minutes, 30° C.). Final assay mixtures contained 7 μg of membrane protein in 10 mM HEPES acid, 10 mM HEPES salt, pH 7.4, 100 mM NaCl, 3 mM MgCl2,10 μM GDP and 10 μg/ml saponin. Total reaction volume was 200 μl. Reactions were terminated by rapid filtration through Unifilter-96 GF/B plates (Perkin Elmer, Mass., USA) using a 96-well filtermate universal harvester. Filters were washed 6 times with ice-cold 10 mM NaH2PO4/10 mM Na2HPO4, pH 7.4. Filters were then air-dried, and 40 μl of liquid scintillation cocktail (Microscint-O) was added to each well. Membrane-bound radioactivity was counted in a Microplate Scintillation and Luminescence Counter from Perkin Elmer.
The concentration-response curves of representative compounds of the present invention—obtained in the presence of EC20 of mGluR2 agonist glutamate to determine positive allosteric modulation (PAM)—were generated using the Lexis software interface (developed at J&J). Data were calculated as % of the control glutamate response, defined as the maximal response that is generated upon addition of glutamate alone. Sigmoid concentration-response curves plotting these percentages versus the log concentration of the test compound were analyzed using non-linear regression analysis. The concentration producing half-maximal effect is then calculated as EC50.
The pEC50 values below were calculated as the −log EC50, when the EC50 is expressed in M.

[1] = test system: hmGluR1, hmGluR3, hmGluR4, hmGluR5, rmGluR6, hmGluR7 and hmGluR8; assay: Selectivity for hmGluR2 in functional receptor assays (Ca2+ mobilization or [35S]GTPγS); assay type: cell-based, human; rat (mGluR6); conditions: hmGluR2 versus other mGluRs
Experimental: as §1

hmGluR8 = molecular target: T3, hmGluR8 (Homo sapiens, UniProt O00222); assay: Selectivity functional receptor assay, mGluR8; assay type: cell-based; conditions: hmGluR2 versus mGluR8
T3 construct: expressed in transfected cells
T3 sequence (O00222 34-908): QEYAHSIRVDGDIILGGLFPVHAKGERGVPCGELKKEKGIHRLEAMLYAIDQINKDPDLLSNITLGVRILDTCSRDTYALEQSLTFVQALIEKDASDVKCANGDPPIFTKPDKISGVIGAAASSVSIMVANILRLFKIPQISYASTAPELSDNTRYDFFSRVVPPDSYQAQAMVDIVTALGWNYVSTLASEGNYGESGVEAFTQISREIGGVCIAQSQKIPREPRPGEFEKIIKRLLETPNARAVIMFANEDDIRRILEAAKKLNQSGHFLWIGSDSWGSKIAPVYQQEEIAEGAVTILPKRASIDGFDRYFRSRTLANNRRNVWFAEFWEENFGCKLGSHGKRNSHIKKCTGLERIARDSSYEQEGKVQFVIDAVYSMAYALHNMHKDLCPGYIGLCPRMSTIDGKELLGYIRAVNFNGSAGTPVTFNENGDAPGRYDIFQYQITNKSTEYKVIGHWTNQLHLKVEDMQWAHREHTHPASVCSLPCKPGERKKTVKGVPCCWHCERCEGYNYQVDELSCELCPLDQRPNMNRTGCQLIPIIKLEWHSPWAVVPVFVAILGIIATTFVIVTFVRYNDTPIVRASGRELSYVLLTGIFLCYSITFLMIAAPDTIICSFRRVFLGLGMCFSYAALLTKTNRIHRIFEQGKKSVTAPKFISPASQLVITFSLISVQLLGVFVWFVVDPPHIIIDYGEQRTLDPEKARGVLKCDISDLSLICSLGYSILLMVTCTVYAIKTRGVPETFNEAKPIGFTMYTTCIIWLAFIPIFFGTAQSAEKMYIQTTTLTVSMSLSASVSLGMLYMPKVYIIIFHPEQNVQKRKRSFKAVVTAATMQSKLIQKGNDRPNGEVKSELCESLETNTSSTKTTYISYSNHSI
Experimental: as §1

hmGluR7 = molecular target: T4, hmGluR7 (Homo sapiens, UniProt Q14831); assay: Selectivity functional receptor assay, mGluR7; assay type: cell-based; conditions: hmGluR2 versus mGluR7
T4 construct: expressed in transfected cells
T4 sequence (Q14831 35-915): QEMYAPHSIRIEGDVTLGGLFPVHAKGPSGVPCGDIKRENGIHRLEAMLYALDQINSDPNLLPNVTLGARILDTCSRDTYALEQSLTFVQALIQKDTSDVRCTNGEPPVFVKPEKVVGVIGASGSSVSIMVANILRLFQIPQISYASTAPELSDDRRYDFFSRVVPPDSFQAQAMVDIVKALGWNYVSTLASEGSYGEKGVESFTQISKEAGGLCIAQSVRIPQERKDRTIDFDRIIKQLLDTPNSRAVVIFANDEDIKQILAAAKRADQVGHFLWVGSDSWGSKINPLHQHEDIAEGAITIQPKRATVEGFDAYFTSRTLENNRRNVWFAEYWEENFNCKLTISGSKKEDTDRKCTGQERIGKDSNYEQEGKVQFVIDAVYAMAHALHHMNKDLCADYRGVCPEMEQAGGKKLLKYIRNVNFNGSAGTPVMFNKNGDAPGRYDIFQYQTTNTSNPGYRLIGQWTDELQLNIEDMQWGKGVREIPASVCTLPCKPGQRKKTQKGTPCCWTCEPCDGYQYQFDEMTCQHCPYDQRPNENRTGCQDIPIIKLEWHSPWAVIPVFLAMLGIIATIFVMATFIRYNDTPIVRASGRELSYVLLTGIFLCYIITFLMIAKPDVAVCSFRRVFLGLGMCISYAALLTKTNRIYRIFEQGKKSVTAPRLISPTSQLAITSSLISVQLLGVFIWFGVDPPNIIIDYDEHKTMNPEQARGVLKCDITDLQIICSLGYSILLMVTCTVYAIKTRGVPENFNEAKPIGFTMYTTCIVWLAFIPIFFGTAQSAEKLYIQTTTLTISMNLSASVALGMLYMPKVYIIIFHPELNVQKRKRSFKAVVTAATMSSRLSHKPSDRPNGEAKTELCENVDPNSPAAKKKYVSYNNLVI
Experimental: as §1

T1 sequence (Q14832 23-879): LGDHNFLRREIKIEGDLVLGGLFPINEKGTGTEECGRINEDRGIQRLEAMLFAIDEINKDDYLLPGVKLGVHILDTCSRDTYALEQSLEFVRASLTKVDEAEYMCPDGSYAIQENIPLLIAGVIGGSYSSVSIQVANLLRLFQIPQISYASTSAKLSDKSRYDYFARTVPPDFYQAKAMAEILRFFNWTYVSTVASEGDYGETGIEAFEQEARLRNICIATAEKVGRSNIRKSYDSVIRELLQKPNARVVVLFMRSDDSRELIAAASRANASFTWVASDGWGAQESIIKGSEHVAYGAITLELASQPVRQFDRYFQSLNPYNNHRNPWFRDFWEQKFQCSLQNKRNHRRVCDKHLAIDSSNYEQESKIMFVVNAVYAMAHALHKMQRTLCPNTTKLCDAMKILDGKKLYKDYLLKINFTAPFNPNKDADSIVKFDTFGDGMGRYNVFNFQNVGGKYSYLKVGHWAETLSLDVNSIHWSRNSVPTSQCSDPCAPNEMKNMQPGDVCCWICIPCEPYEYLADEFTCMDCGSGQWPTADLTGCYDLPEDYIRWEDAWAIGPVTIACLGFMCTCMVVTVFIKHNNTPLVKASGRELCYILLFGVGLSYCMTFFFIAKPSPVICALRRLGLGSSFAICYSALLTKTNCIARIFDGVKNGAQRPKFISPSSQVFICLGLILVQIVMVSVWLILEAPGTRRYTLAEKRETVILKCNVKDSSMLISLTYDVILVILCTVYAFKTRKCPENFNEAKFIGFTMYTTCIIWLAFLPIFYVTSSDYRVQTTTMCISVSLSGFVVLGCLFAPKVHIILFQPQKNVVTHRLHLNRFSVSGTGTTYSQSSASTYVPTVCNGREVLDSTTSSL

| Selectivity over mGluR3 (hmGluR3) | melting point | GTPγS-hmGluR2 PAM pEC50 (human mGluR2 receptor) | Selectivity over mGluR8 (hmGluR8) | Compound | EC50 (human mGluR2 receptor) | Selectivity over mGluR1, mGluR3-mGluR8 [1] | Selectivity over mGluR7 (hmGluR7) |
| --- | --- | --- | --- | --- | --- | --- | --- |
| ~20 fold | – | 7.7 | – | COc1ccccc1C1CCN(c2ccn3c(CC4CC4)nnc3c2Cl)CC1 [compound 11] | – | >100, except for mGluR3 for which selectivity fold | – |
| which selectivity ≧500 fold | 208.5 °C | 8.03 | which selectivity ≧500 fold | COc1ccc(F)c(F)c1C1CCN(c2ccn3c(CC4CC4)nnc3c2Cl)CC1 [compound 10] | – | >1,000 fold, except for mGluR3 and mGluR8 for | – |
| – | 168.3 °C | 7.43 | – | COc1c(F)cccc1C1CCN(c2ccn3c(CC4CC4)nnc3c2Cl)CC1 [compound 9] | – | >500 fold | – |
| – | 259 °C | 7.98 | – | COc1ccc(F)cc1C1CCN(c2ccn3c(CC(F)(F)F)nnc3c2Cl)CC1 [compound 1] | – | >1,000 fold | – |
| ≥ 40 fold | > 300 °C | – | – | COc1ccc(F)cc1C1CCN(c2ccn3c(CC4CC4)nnc3c2Cl)CC1 [compound 4] | 9.33 nM | > 500 fold | – |
| – | – | – | – | COc1cccc(F)c1C1CCN(c2ccn3c(CC(F)(F)F)nnc3c2Cl)CC1 [compound 5] | 3.89 nM | ≧1,000 fold | – |
| – | 180.7 °C | 8.39 | – | COc1c(F)ccc(F)c1C1CCN(c2ccn3c(CC4CC4)nnc3c2C(F)(F)F)CC1 [compound 3] | – | >1,000 fold | – |
| ≧500 fold | 162.2 °C | 8.16 | ≧500 fold | COc1cc(F)cc(F)c1C1CCN(c2ccn3c(CC4CC4)nnc3c2Cl)CC1 [compound 7] | – | >1,000 fold, except for mGluR3 and mGluR8 | – |

| Compound | Selectivity over mGluR3 (hmGluR3) | melting point | GTPγS-hmGluR2 PAM pEC50 (human mGluR2 receptor) | Selectivity over mGluR8 (hmGluR8) | EC50 (human mGluR2 receptor) | Selectivity over mGluR1, mGluR3-mGluR8 [1] | Selectivity over mGluR7 (hmGluR7) |
| --- | --- | --- | --- | --- | --- | --- | --- |
| COc1c(C2CCN(c3ccn4c(CC5CC5)nnc4c3Cl)CC2)ccc(F)c1F [compound 8] | ≥ 400 fold | 173.5 °C | – | – | 26.3 nM | > 1,000 fold | – |
| COc1c(F)cccc1C1CCN(c2ccn3c(CC4CC4)nnc3c2C(F)(F)F)CC1 [compound 12] | ≥ 200 fold | 195.7 °C | – | – | 11.2 nM | ≥ 1,000 fold | – |
| COc1cccc(F)c1C1CCN(c2ccn3c(CC4CC4)nnc3c2Cl)CC1 [compound 6] | > 300 fold | – | 8.22 | mGluR7 and mGluR8 for which selectivity >500 fold | – | > 1,000 fold | mGluR7 and mGluR8 for which selectivity >500 fold |
| COc1c(F)ccc(F)c1C1CCN(c2ccn3c(CC4CC4)nnc3c2Cl)CC1 [compound 2] | – | 163.2 °C | – | – | 7.41 nM | >1,000 fold | – |
